Data set [1] deals with herpes simplex virus (type 1). Particulars: cited from earlier work.
Data set [2] concerns HIV-1. Particulars: cited from earlier work.
Data set [3] relates to VSV (New Jersey serotype). The format is cell-based, vesicular stomatitis virus.
The subject of data set [4] is DENV-1 VLP. In kind it is cell-based, dengue virus (DENV-1). The conditions noted are these: 1.5 μM.
Data set [5] is described as follows: in vitro. The conditions noted are these: African green monkey.
Data set [6] concerns WEEV (strain Cova 746). In kind it is cell-based, Western equine encephalitis virus.
Data set [7] deals with vaccinia virus. The conditions noted are these: cited from earlier work.
In data set [8] the test system is SARS-CoV. Particulars: cited from earlier work.
Data set [9] relates to WNV VLP. The format is cell-based, West Nile virus. The conditions noted are these: 1.5 μM.
In data set [10] the test system is poliovirus. The conditions noted are these: cited from earlier work.

What is called viability is a per cent measure of how many cells are alive, often set against a control. For `O[C@H]1[C@H]2c3cc4c(cc3CN3CCC(=C[C@@H]1O)[C@H]23)OCO4` [Lycorine], the antiviral activity entry is recorded as “inhibit” in [1]; “does not inhibit” in data set [2]; “inhibit” in data set [7]; “inhibit” in [8]; “inhibit” in data set [10]. Further, the “suppression of viral titer” value in data set [3] and in data set [6] was “suppressed titers of neither WEEV nor VSV” in each case. Also, the “reduction of luciferase signals” value turned out to be 1200 fold in [4] and 1400 fold in [9]. The compound also showed a viability at 1.5 µM in [5] greater than 90%. Also, the “suppression of viral translation” value in [10] was roughly 90%.

The values above are taken from PMC5388927 (Virology, 2008).
